What is called IC50 is the concentration at which inhibition is half-maximal.

Data set [1] has as its system SW620 cells. The experiment in a line: WST-8 cytotoxicity assay, SW620. Particulars: for IC50: read-out: IC50 SW620, human colon cancer cell, 72 h, mean ± SE (n = 3). As for the experimental part: (§1) With a range of chromophore analogues in hand, their toxicity to SW620 cells was investigated by WST assays.
(§2) Basically, the evaluation was performed using methods previously reported by our group[20],[23]. Cytotoxic activities of compounds against MIA PaCa-2 (American Type Culture Collection), SW620 (European Collection of Authenticated Cell Cultures) were measured by WST-8 assay according to manufacturer’s protocol. Briefly, cells (1 × 10^4 cells/well) in a 96-well plate were cultured in medium (for MIA PaCa-2, D-MEM (Wako, Japan) containing 10% fetal bovine serum (Funakoshi, Japan), 100 units/mL penicillin G and 100 µg/mL streptomycin (Wako, Japan), for SW620, RPMI-1640 (Wako, Japan) containing 10% fetal bovine serum, 100 units/mL penicillin G and 100 µg/mL streptomycin) were cultured at 37 °C for 24 h under 5% CO2 atmosphere. Then, cells were treated with test compounds (final DMSO concentration was 1%) at 37 °C for 72 h under 5% CO2 atmosphere. Then, cells were treated with a solution of Cell Counting Kit-8® (Dojindo, Japan) for 3 h. After that, cell viabilities were determined based on the measurement of absorption at 450 nm of the wells by using TECAN Infinite® M200 microplate reader. The results were expressed as a percentage of the negative control (cells treated with DMSO only), and that value was fixed at 100%.
On the technique in general: Tetrazolium assays rely on reduction of a dye to a coloured formazan, in cell work by metabolically active cells.

In data set [2] the test system is MIA PaCa-2 cells. Particulars: read-out: IC50 MIA PaCa-2; human pancreatic carcinoma cell, 72 h, mean ± SE (n = 3). As to the method: as §1, §2

Molecules are shown by their SMILES. Where “and” joins values, the source holds several entries; their conditions need not be identical. Equal values may be shown once.

`CC(C)[C@H]1C(=O)OC[C@@H](NC(=O)c2cnc3ccccc3n2)C(=O)N[C@@H](C)C(=O)N(C)[C@H]2CSC[C@@H](C(=O)N1C)N(C)C(=O)[C@H](C)NC(=O)[C@H](NC(=O)c1cnc3ccccc3n1)COC(=O)[C@H](C(C)C)N(C)C2=O` [Compound 2]: the IC50 in data set [1] was 0.026 µM and 0.0256 µM; in data set [2], 0.0081 ± 0.001 µM.

On to `CC(C)[C@H]1C(=O)OC[C@@H](NC(=O)c2ccc3ccccc3n2)C(=O)N[C@@H](C)C(=O)N(C)[C@H]2CSC[C@@H](C(=O)N1C)N(C)C(=O)[C@H](C)NC(=O)[C@H](NC(=O)c1ccc3ccccc3n1)COC(=O)[C@H](C(C)C)N(C)C2=O` [Compound 4], for which, in data set [1], the “cytotoxicity to SW620 cells (in words)” value is “slightly better cytotoxicity than 2” and the IC50 was determined as 0.0205 ± 0.0031 µM. In addition, in data set [2], the half-inhibitory concentration (IC50) worked out at 0.0058 ± 0.0009 µM.

As to `CC(C)[C@H]1C(=O)OC[C@@H](NC(=O)c2cnc3ccccc3c2)C(=O)N[C@@H](C)C(=O)N(C)[C@H]2CSC[C@@H](C(=O)N1C)N(C)C(=O)[C@H](C)NC(=O)[C@H](NC(=O)c1cnc3ccccc3c1)COC(=O)[C@H](C(C)C)N(C)C2=O` [Compound 5, {N-(Quinoline-3-carbonyl)-D-Ser-L-Ala-N-Boc-N-Me-L-Cys-N-Me-L-Val}2 sulfide], the 50% inhibitory concentration (IC50) turned out to be 1.21 ± 0.035 µM in data set [1] and 0.399 ± 0.076 µM in data set [2].

`CC(C)[C@H]1C(=O)OC[C@@H](NC(=O)c2ccc3ncccc3c2)C(=O)N[C@@H](C)C(=O)N(C)[C@H]2CSC[C@@H](C(=O)N1C)N(C)C(=O)[C@H](C)NC(=O)[C@H](NC(=O)c1ccc3ncccc3c1)COC(=O)[C@H](C(C)C)N(C)C2=O` [Compound 6, {N-(Quinoline-6-carbonyl)-D-Ser-L-Ala-N-Boc-N-Me-L-Cys-N-Me-L-Val}2 sulfide]: the IC50 in data set [1] stood at 1.19 ± 0.187 µM; in data set [2] it was 0.327 ± 0.066 µM.

Take `CC(C)[C@H]1C(=O)OC[C@@H](NC(=O)c2ccc3ccccc3c2)C(=O)N[C@@H](C)C(=O)N(C)[C@H]2CSC[C@@H](C(=O)N1C)N(C)C(=O)[C@H](C)NC(=O)[C@H](NC(=O)c1ccc3ccccc3c1)COC(=O)[C@H](C(C)C)N(C)C2=O` [Compound 7, {N-(Naphthalene-2-carbonyl)-D-Ser-L-Ala-N-Boc-N-Me-L-Cys-N-Me-L-Val}2 sulfide]: the “cytotoxicity to SW620 cells (in words)” value in data set [1] is recorded as “completely diminished activity”. Besides, the IC50 in data set [1] and in data set [2] was above 10 µM throughout.

Turning to `CC(C)[C@H]1C(=O)OC[C@@H](NC(=O)c2cc3ccccc3[nH]2)C(=O)N[C@@H](C)C(=O)N(C)[C@H]2CSC[C@@H](C(=O)N1C)N(C)C(=O)[C@H](C)NC(=O)[C@H](NC(=O)c1cc3ccccc3[nH]1)COC(=O)[C@H](C(C)C)N(C)C2=O` [Compound 8, {N-(Indol-2-carbonyl)-D-Ser-L-Ala-N-Boc-N-Me-L-Cys-N-Me-L-Val}2 sulfide], the half-maximal inhibitory concentration (IC50) in data set [1] and in data set [2] was above 10 µM each time.

Take `CC(C)[C@H]1C(=O)OC[C@@H](NC(=O)c2c[nH]c3ccccc23)C(=O)N[C@@H](C)C(=O)N(C)[C@H]2CSC[C@@H](C(=O)N1C)N(C)C(=O)[C@H](C)NC(=O)[C@H](NC(=O)c1c[nH]c3ccccc13)COC(=O)[C@H](C(C)C)N(C)C2=O` [Compound 9, {N-(Indol-3-carbonyl)-D-Ser-L-Ala-N-Boc-N-Me-L-Cys-N-Me-L-Val}2 sulfide]: the IC50 in data set [1] and in data set [2] was above 10 µM throughout.

With `CC(C)[C@H]1C(=O)OC[C@@H](NC(=O)c2ccc3[nH]ccc3c2)C(=O)N[C@@H](C)C(=O)N(C)[C@H]2CSC[C@@H](C(=O)N1C)N(C)C(=O)[C@H](C)NC(=O)[C@H](NC(=O)c1ccc3[nH]ccc3c1)COC(=O)[C@H](C(C)C)N(C)C2=O` [Compound 10, {N-(Indol-5-carbonyl)-D-Ser-L-Ala-N-Boc-N-Me-L-Cys-N-Me-L-Val}2 sulfide], the IC50 in data set [1] and in data set [2] was above 10 µM throughout.

As for `CC(C)[C@H]1C(=O)OC[C@@H](NC(=O)c2ccc3cc[nH]c3c2)C(=O)N[C@@H](C)C(=O)N(C)[C@H]2CSC[C@@H](C(=O)N1C)N(C)C(=O)[C@H](C)NC(=O)[C@H](NC(=O)c1ccc3cc[nH]c3c1)COC(=O)[C@H](C(C)C)N(C)C2=O` [Compound 11, {N-(Indol-6-carbonyl)-D-Ser-L-Ala-N-Boc-N-Me-L-Cys-N-Me-L-Val}2 sulfide], the IC50 in data set [1] and in data set [2] was above 10 µM in each case.

Consider `CC(C)[C@H]1C(=O)OC[C@@H](NC(=O)c2cccc3cc[nH]c23)C(=O)N[C@@H](C)C(=O)N(C)[C@H]2CSC[C@@H](C(=O)N1C)N(C)C(=O)[C@H](C)NC(=O)[C@H](NC(=O)c1cccc3cc[nH]c13)COC(=O)[C@H](C(C)C)N(C)C2=O` [Compound 12, {N-(Indol-7-carbonyl)-D-Ser-L-Ala-N-Boc-N-Me-L-Cys-N-Me-L-Val}2 sulfide], for which the IC50 in data set [1] and in data set [2] was above 10 µM throughout.

With `CC(C)[C@H]1C(=O)OC[C@@H](NC(=O)c2cc3ccccc3o2)C(=O)N[C@@H](C)C(=O)N(C)[C@H]2CSC[C@@H](C(=O)N1C)N(C)C(=O)[C@H](C)NC(=O)[C@H](NC(=O)c1cc3ccccc3o1)COC(=O)[C@H](C(C)C)N(C)C2=O` [Compound 13, {N-(Benzofurane-2-carbonyl)-D-Ser-L-Ala-N-Boc-N-Me-L-Cys-N-Me-L-Val}2 sulfide], the IC50 in data set [1] and in data set [2] was above 10 µM throughout.

Take `CC(C)[C@H]1C(=O)OC[C@@H](NC(=O)c2cc3ccccc3s2)C(=O)N[C@@H](C)C(=O)N(C)[C@H]2CSC[C@@H](C(=O)N1C)N(C)C(=O)[C@H](C)NC(=O)[C@H](NC(=O)c1cc3ccccc3s1)COC(=O)[C@H](C(C)C)N(C)C2=O` [Compound 14, {N-(Benzothiophene-2-carbonyl)-D-Ser-L-Ala-N-Boc-N-Me-L-Cys-N-Me-L-Val}2 sulfide]: the IC50 in data set [1] and in data set [2] was above 10 µM throughout.

For `CC(C)[C@H]1C(=O)OC[C@@H](NC(=O)c2ccc3ocnc3c2)C(=O)N[C@@H](C)C(=O)N(C)[C@H]2CSC[C@@H](C(=O)N1C)N(C)C(=O)[C@H](C)NC(=O)[C@H](NC(=O)c1ccc3ocnc3c1)COC(=O)[C@H](C(C)C)N(C)C2=O` [Compound 15, {N-(Benzoxazole-5-carbonyl)-D-Ser-L-Ala-N-Boc-N-Me-L-Cys-N-Me-L-Val}2 sulfide], the IC50 in data set [1] and in data set [2] was above 10 µM each time.

Turning to `CC(C)[C@H]1C(=O)OC[C@@H](NC(=O)c2ccc3ncoc3c2)C(=O)N[C@@H](C)C(=O)N(C)[C@H]2CSC[C@@H](C(=O)N1C)N(C)C(=O)[C@H](C)NC(=O)[C@H](NC(=O)c1ccc3ncoc3c1)COC(=O)[C@H](C(C)C)N(C)C2=O` [Compound 16, {N-(Benzoxazole-6-carbonyl)-D-Ser-L-Ala-N-Boc-N-Me-L-Cys-N-Me-L-Val}2 sulfide], the IC50 in data set [1] and in data set [2] was above 10 µM each time.

`CC(C)[C@H]1C(=O)OC[C@@H](NC(=O)c2ccc3ncsc3c2)C(=O)N[C@@H](C)C(=O)N(C)[C@H]2CSC[C@@H](C(=O)N1C)N(C)C(=O)[C@H](C)NC(=O)[C@H](NC(=O)c1ccc3ncsc3c1)COC(=O)[C@H](C(C)C)N(C)C2=O` [Compound 17]: the IC50 in data set [1] and in data set [2] was above 10 µM throughout.

For `CC(C)[C@H]1C(=O)OC[C@@H](NC(=O)c2ccc(C(=O)c3ccccc3)cc2)C(=O)N[C@@H](C)C(=O)N(C)[C@H]2CSC[C@@H](C(=O)N1C)N(C)C(=O)[C@H](C)NC(=O)[C@H](NC(=O)c1ccc(C(=O)c3ccccc3)cc1)COC(=O)[C@H](C(C)C)N(C)C2=O` [Compound 18, {N-(4-Benzoylphenylcarbonyl)-D-Ser-L-Ala-N-Boc-N-Me-L-Cys-N-Me-L-Val}2 sulfide], in data set [1], the “cytotoxicity to SW620 cells (in words)” value is given as “lost their cytotoxicity” and the IC50 is above 10 µM. The IC50 in data set [2] was above 10 µM.

Take `CC(C)[C@H]1C(=O)OC[C@@H](NC(=O)c2ccc3c(c2)C(=O)c2ccccc2C3=O)C(=O)N[C@@H](C)C(=O)N(C)[C@H]2CSC[C@@H](C(=O)N1C)N(C)C(=O)[C@H](C)NC(=O)[C@H](NC(=O)c1ccc3c(c1)C(=O)c1ccccc1C3=O)COC(=O)[C@H](C(C)C)N(C)C2=O` [Compound 19, {N-(Anthraquinone-2carbonyl)-D-Ser-L-Ala-N-Boc-N-Me-L-Cys-N-Me-L-Val}2 sulfide]: in data set [1], the “cytotoxicity to SW620 cells (in words)” value is recorded as “lost their cytotoxicity” and the concentration for half-maximal inhibition (IC50) was above 10 µM. Moreover, in data set [2], the IC50 was above 10 µM.

Turning to `CC(C)[C@H]1C(=O)OC[C@@H](NC(=O)c2cnccn2)C(=O)N[C@@H](C)C(=O)N(C)[C@H]2CSC[C@@H](C(=O)N1C)N(C)C(=O)[C@H](C)NC(=O)[C@H](NC(=O)c1cnccn1)COC(=O)[C@H](C(C)C)N(C)C2=O` [Compound 20, {N-(Pyradine-2carbonyl)-D-Ser-L-Ala-N-Boc-N-Me-L-Cys-N-Me-L-Val}2 sulfide], in data set [1], the “cytotoxicity to SW620 cells (in words)” value was “lost their cytotoxicity”.

The values are drawn from PMC10985088, “Synthesis and biological evaluation of echinomycin analogues as potential colon cancer agent” (Scientific Reports, 2024).
